What all share (experiment): NCI anticancer screen, dose series, 48 h
Experiment [1] deals with 786-0 renal.
Experiment [2] concerns ACHN renal.
In experiment [3] the test system is HOP-92 NSCLC.
Experiment [4] relates to EKVX NSCLC.
Experiment [5] concerns UACC-257 melanoma.
Experiment [6] deals with SNB-19 CNS.
Experiment [7] has as its system A498 renal.
Experiment [8] deals with DU-145 prostate.
Experiment [9] has as its system CCRF-CEM leukemia.
In experiment [10] the test system is COLO 205 colon.

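A five-concentration, 48-hour dose response in 96-well plates underlies each endpoint, interpolated linearly between surrounding concentrations. Abbreviation: GI50, concentration required for 50% inhibition of growth. TGI: concentration producing complete growth inhibition.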

We go through 13 compounds from PubChem BioAssay (NCI).

As to `COc1ccc2c(c1)NC1(CCN(CCCC(=O)c3ccc(F)cc3)CC1)N=N2`, the TGI in [1] was 36.9 µM; in experiment [2] it was greater than 100 µM; in experiment [3], greater than 100 µM; in [4], greater than 100 µM; in experiment [5], 46.1 µM; in experiment [6], greater than 100 µM. The TGI in experiment [7] came out at 76.7 µM; in experiment [8] it was 46.8 µM; in experiment [9], 58.5 µM; in experiment [10], 27.8 µM.
Consider `Cc1cc(OCCOCCC(F)(F)P(=O)(O)O)ccc1CCc1cnc2c(N)nc3cc(CCC(=O)O)ccc3c2c1`, for which the GI50 in experiment [2] was greater than 100 µM; in experiment [3], 6.61 µM; in [4], greater than 100 µM; in experiment [5] it was greater than 100 µM; in experiment [6] it was greater than 100 µM; in experiment [7] it was 26.2 µM. Also, the GI50 in [8], in [9] and in experiment [10] was greater than 100 µM in each case. Further, the TGI in experiment [2], in [3], in [4], in experiment [5], in experiment [6] and in [7] was greater than 100 µM each time. Besides, the TGI in experiment [8], in experiment [9] and in experiment [10] was greater than 100 µM throughout.
Turning to `O=C(O)c1c2c(cc3c1CC1(Cc4cc5c(cc4C1=O)CCC5)C3)CCC2` (stereo not drawn), the TGI in experiment [1], in experiment [2], in [3], in experiment [4], in [5] and in [6] was greater than 100 µM in each case. Moreover, the TGI in [7], in experiment [8], in [9] and in experiment [10] was greater than 100 µM each time.
Take `NC(=O)CC(N)C(=O)NC(Cc1ccccc1)C(=O)NC(Cc1ccccc1)NC(=O)C(Cc1c[nH]c2ccccc12)C(=O)O` (stereo not drawn): the TGI in [1], in experiment [2], in experiment [3], in experiment [4], in experiment [5] and in [6] was greater than 100 µM each time. Also, the TGI in [7], in [8], in experiment [9] and in experiment [10] was greater than 100 µM each time.
On to `O=[N+]([O-])c1cc(F)ccc1S(=O)(=O)c1ccccc1`, for which the TGI in experiment [1], in [2], in experiment [3], in [4], in [5] and in experiment [6] was greater than 10 µM each time. In addition, the TGI in [7], in [8], in [9] and in experiment [10] was greater than 10 µM in each case.
As for `COC1=C(Cl)C(=O)c2c(O)ccc(O)c2C1=O`, the TGI in experiment [1] was 0.864 µM; in [2] it was 2.31 µM; in experiment [3] it was 3.61 µM; in experiment [4], 10.6 µM; in experiment [5], 3.41 µM; in experiment [6], 17.1 µM. In addition, the TGI amounted to 2.63 µM in [7], 6.83 µM in [8], 0.213 µM in experiment [9] and 0.53 µM in experiment [10].
Take `CCSc1nc(=S)n(-c2ccccc2)c(C)c1C(C)=O`: the TGI in experiment [1], in experiment [2], in [3], in experiment [4], in experiment [5] and in experiment [6] was greater than 100 µM throughout. In addition, the TGI in experiment [7], in experiment [8], in experiment [9] and in experiment [10] was greater than 100 µM throughout.
Turning to `CC(C)(C)NC(=O)/C(=C\Sc1ccccc1)c1ccccc1`, the TGI was greater than 100 µM in experiment [1]; greater than 100 µM in experiment [2]; greater than 42.4 µM in experiment [3]; greater than 100 µM in experiment [4]; greater than 100 µM in experiment [5]; greater than 100 µM in [6]. In addition, the TGI in [7], in [8], in [9] and in experiment [10] was greater than 100 µM in each case.
As to `CCCCc1ccc(Nc2nc(Cl)c3ccn(C4CC(Oc5ccc(C)cc5)C(COc5ccc(C)cc5)O4)c3n2)cc1` (stereo not drawn), the TGI is greater than 46.4 µM in experiment [1]; 31.4 µM in experiment [2]; greater than 46.4 µM in [3]; 38 µM in experiment [4]; 31.5 µM in [5]; 31.8 µM in experiment [6]. Also, the TGI in [7], in experiment [8], in experiment [9] and in [10] was greater than 46.4 µM each time.
As for `Cc1nc2c(cc1OCc1ccccc1)C(=O)C1=C(C2=O)C2OC(=O)CC2OC1(C)C` (stereo not drawn), the TGI in experiment [1] is 1.07 µM; in experiment [2], 1.86 µM; in experiment [3], 1.42 µM; in experiment [4] it was 3.63 µM; in experiment [5] it was 1.93 µM; in experiment [6], 5.65 µM. Besides, the TGI came out at 3.02 µM in experiment [7], 3.09 µM in experiment [8], 0.451 µM in experiment [9] and 1.15 µM in experiment [10].
With `COC(=O)C(Cc1c[nH]c2ccccc12)NP(=O)(O)OCC1OC(n2cc(Br)c(=O)[nH]c2=O)CC1O` (stereo not drawn), the TGI in experiment [1], in experiment [2], in experiment [3], in experiment [4], in [5] and in experiment [6] was greater than 100 µM each time. Also, the TGI in experiment [7], in [8], in [9] and in experiment [10] was greater than 100 µM throughout.
On to `COc1cccc2cc(C(=O)Nc3ccccc3)c(=N)oc12`, for which the TGI in experiment [1], in [2], in experiment [3], in experiment [4], in experiment [5] and in experiment [6] was greater than 100 µM in each case. In addition, the TGI in experiment [7], in [8], in experiment [9] and in experiment [10] was greater than 100 µM in each case.
As to `O=C(C/C(=N/O)C(F)(F)F)c1cccs1`, the TGI in experiment [1], in experiment [2], in experiment [3], in experiment [4], in experiment [5] and in [6] was greater than 100 µM throughout. The TGI in experiment [7], in experiment [8], in [9] and in [10] was greater than 100 µM in each case.
